Results as given in patent publication EP0428132A1, “Pradimicin derivatives” (Bristol-Myers Squibb Company, priority 1989, dated 1991).
≈ marks a conversion by molar mass, not a printed value. Counter-ions that a name gives are not always drawn.

Key:
[1] = system: T. mentagrophytes A22838; assay: In vitro antifungal activity, serial agar dilution method (Table 1a, footnote strain 3); format: cell-based; settings: Trichophyton mentagrophytes, strain per footnote **3, YM agar (pH 7.0, Difco), 30°C for 2 days (yeast) or 4 days (filamentous fungi), read-out: MICs, T. mentagrophytes A22838
Experimental: (§1) The inoculum size was adjusted to 10⁶ cells/ml, and a volume of approximately 0.003 ml of fungal suspension was applied to the surface of the antibiotic containing agar plates with a multiinoculator. After incubation, the lowest concentration of antibiotic causing virtually complete inhibition of fungal growth was determined as the minimum inhibitory concentration (MIC).

[2] = system: M. gypseum A22810; assay: In vitro antifungal activity, serial agar dilution method (Table 1a, footnote strain 1); format: cell-based, Microsporum gypseum; settings: Nannizzia gypsea, strain per footnote **1, YM agar (pH 7.0, Difco), 30°C for 2 days (yeast) or 4 days (filamentous fungi), read-out: MICs, M. gypseum A22810
Experimental: as §1

[3] = system: Cryptococcus neoformans A15053; assay: In vitro antifungal activity, serial agar dilution method (Table 1a); format: cell-based; settings: A15053, YM agar (pH 7.0, Difco), 30°C for 2 days (yeast) or 4 days (filamentous fungi), read-out: MICs, Cryptococcus neoformans A15053
Experimental: as §1

[4] = system: Candida albicans A9540; assay: as above; format: cell-based; settings: A9540, YM agar (pH 7.0, Difco), 30°C for 2 days (yeast) or 4 days (filamentous fungi), read-out: MICs, Candida albicans A9540
Experimental: as §1

[5] = system: Candida paratropicalis A25825; assay: as above; format: cell-based; settings: YM agar (pH 7.0, Difco); 30°C for 2 days (yeast) or 4 days (filamentous fungi); read-out: MICs, Candida paratropicalis A25825
Experimental: as §1

[6] = system: Candida albicans A25578; assay: as above; format: cell-based; settings: A25578, YM agar (pH 7.0, Difco), 30°C for 2 days (yeast) or 4 days (filamentous fungi), read-out: MICs, Candida albicans A25578
Experimental: as §1

[7] = system: Candida pseudotropicalis A25802; assay: as above; format: cell-based; settings: Kluyveromyces marxianus, YM agar (pH 7.0, Difco), 30°C for 2 days (yeast) or 4 days (filamentous fungi), read-out: MICs, Candida pseudotropicalis A25802
Experimental: as §1

[8] = system: Candida tropicalis A25812; assay: as above; format: cell-based; settings: A25812, YM agar (pH 7.0, Difco), 30°C for 2 days (yeast) or 4 days (filamentous fungi), read-out: MICs, Candida tropicalis A25812
Experimental: as §1

[9] = system: Saccharomyces cerevisiae A25803; assay: as above; format: cell-based; settings: YM agar (pH 7.0, Difco), 30°C for 2 days (yeast) or 4 days (filamentous fungi), read-out: MICs, Saccharomyces cerevisiae A25803
Experimental: as §1

[10] = system: Candida tropicalis A25809; assay: as above; format: cell-based; settings: YM agar (pH 7.0, Difco), 30°C for 2 days (yeast) or 4 days (filamentous fungi), read-out: MICs, Candida tropicalis A25809
Experimental: as §1

[11] = system: T. rubrum A24195; assay: In vitro antifungal activity, serial agar dilution method (Table 1a, footnote strain 2); format: cell-based; settings: Trichophyton rubrum, A24195, pH 7, read-out: MICs, T. rubrum A24195
Experimental: as §1

[12] = system: M. gypseum A26835; assay: In vitro antifungal activity, serial agar dilution method (Table 1a, footnote strain 4); format: cell-based, Microsporum gypseum; settings: Nannizzia gypsea, A26835; strain per footnote **4; YM agar (pH 7.0, Difco); 30°C for 2 days (yeast) or 4 days (filamentous fungi); read-out: MICs, M. gypseum A26835
Experimental: as §1

[13] = system: M. canis A26834; assay: In vitro antifungal activity, serial agar dilution method (Table 1a, footnote strain 5); format: cell-based; settings: Microsporum canis, A26834, pH 7, read-out: MICs, M. canis A26834
Experimental: as §1

[14] = system: Trichophyton rubrum A26761; assay: In vitro antifungal activity, serial agar dilution method (Table 1a); format: cell-based; settings: A26761, pH 7, read-out: MICs, Trichophyton rubrum A26761
Experimental: as §1

[15] = system: Trichophyton mentagrophytes A26771; assay: as above; format: cell-based; settings: A26771, YM agar (pH 7.0, Difco), 30°C for 2 days (yeast) or 4 days (filamentous fungi), read-out: MICs, Trichophyton mentagrophytes A26771
Experimental: as §1

[16] = Water solubility, protocol I (PBS, HPLC); format: physicochemical; settings: Method I: PBS without CaCl₂ and MgCl₂.6H₂O
Experimental: The supernatant (2 µL) was analyzed by HPLC using the conditions specified for each compound in the Experimental Section. […] When not soluble, an additional amount of PBS (x µL) was added, sonicated, and centrifuged. When visibly soluble, the solution (2 µL) was injected to HPLC and the peak area was used for the known concentration of the sample.

[17] = system: Candida albicans A9540; assay: Intravenous Candida albicans infection mouse model, Table 2 part B; format: in vivo, mice; settings: mouse, in vivo
Experimental: Several compounds were also evaluated in an intravenous Candida albicans […] infection mouse model. The test organism was suspended in saline approximately 10 times the median lethal dose of the fungus (10⁶ cells/mouse) were used to infect intravenously male ICR mice weighing 20 to 24 g. Groups of five mice at each dose level were given the test compounds intravenously or intramuscularly. The 50% protective dose (PD₅₀) was calculated from survival rates recorded 20 or 21 days after the fungal challenge. […]

[18] = system: Microsporum canis WW10218; assay: In vitro antifungal activity, serial agar dilution method (Table 1a); format: cell-based; settings: WW10218, pH 7, read-out: MICs, Microsporum canis WW10218
Experimental: as §1

[19] = system: Microsporum gypseum WW1107; assay: as above; format: cell-based; settings: Nannizzia gypsea, YM agar (pH 7.0, Difco), 30°C for 2 days (yeast) or 4 days (filamentous fungi), read-out: MICs, Microsporum gypseum WW1107
Experimental: as §1

[20] = system: M. canis A22494; assay: In vitro antifungal activity, serial agar dilution method (Table 1a, footnote strain 6); format: cell-based; settings: Microsporum canis, A22494, pH 7, read-out: MICs, M. canis A22494
Experimental: as §1

SMILES	MIC [1] [mg/L]	MIC [2] [mg/L]	MIC [3] [mg/L]	MIC [4] [mg/L]	MIC [5] [mg/L]	MIC [6] [mg/L]	MIC [7] [mg/L]	MIC [8] [mg/L]	MIC [9] [mg/L]	MIC [10] [mg/L]	MIC [11] [mg/L]	MIC [12] [mg/L]	MIC [13] [mg/L]	MIC [14] [mg/L]	MIC [15] [mg/L]	solubility [16] [mg/mL]	PD₅₀ [17] [mg/kg]	MIC [18] [mg/L]	MIC [19] [mg/L]	MIC [20] [mg/L]
COc1cc(O)c2c(c1)C(=O)c1c(cc3c(c1O)-c1c(cc(C)c(C(=O)N[C@H](C)C(=O)O)c1O)[C@H](O[C@@H]1O[C@H](C)[C@H](N(C)C(=O)CN)[C@H](O)[C@H]1O)[C@H]3O)C2=O [Ex. 14, N-(glycyl) pradimicin B formate salt]	1.6	3.2	1.6	3.2	3.2	3.2	1.6	3.2	1.6	3.2	1.6	–	–	–	–	–	–	–	–	–
COc1cc(O)c2c(c1)C(=O)c1c(cc3c(c1O)-c1c(cc(C)c(C(=O)N[C@H](C)C(=O)O)c1O)[C@H](O[C@@H]1O[C@H](C)[C@H](N(C)Cc4ccccc4)[C@H](O[C@@H]4OC[C@@H](O)[C@H](O)[C@H]4O)[C@H]1O)[C@H]3O)C2=O [Ex. 24, N-(Benzyl) pradimicin A]	–	–	1.6 (≈ 1.72 µM)	> 50	> 50	> 50	12.5 (≈ 13.4 µM)	> 50	–	–	–	50 (≈ 53.7 µM)	25 (≈ 26.9 µM)	3.2 (≈ 3.44 µM)	3.2 (≈ 3.44 µM)	–	–	–	–	–
C=CCN(C)[C@@H]1[C@H](O)[C@@H](O)[C@H](O[C@H]2c3cc(C)c(C(=O)N[C@H](C)C(=O)O)c(O)c3-c3c(cc4c(c3O)C(=O)c3cc(OC)cc(O)c3C4=O)[C@@H]2O)O[C@@H]1C [Ex. 21, N-(Allyl) pradimicin B]	–	–	1.6 (≈ 2.14 µM)	3.2 (≈ 4.27 µM)	6.3 (≈ 8.41 µM)	0.8 (≈ 1.07 µM)	0.8 (≈ 1.07 µM)	6.3 (≈ 8.41 µM)	0.8 (≈ 1.07 µM)	1.6 (≈ 2.14 µM)	–	–	–	3.2 (≈ 4.27 µM)	3.2 (≈ 4.27 µM)	2 (≈ 2670 µM)	>50	3.2 (≈ 4.27 µM)	12.5 (≈ 16.7 µM)	–
COc1cc(O)c2c(c1)C(=O)c1c(cc3c(c1O)-c1c(cc(C)c(C(=O)N[C@H](C)C(=O)O)c1O)[C@H](O[C@@H]1O[C@H](C)[C@H](N(C)C(=O)[C@@H](N)CCC(=O)O)[C@H](O)[C@H]1O)[C@H]3O)C2=O [Ex. 20, N-(L-glutamyl) pradimicin B formate salt]	12.5	12.5	50	25	25	12.5	6.3	25	6.3	–	12.5	–	–	–	–	–	–	–	–	12.5
